pEC50: −log10 of the molar value.
Key:
SARS-CoV-2 Delta = experiment: microbe, parasite or virus in culture; format: cell-based; settings: Severe acute respiratory syndrome coronavirus 2, 24 h
TMPRSS2 = TMPRSS2 (Homo sapiens, UniProt O15393); experiment: In vitro enzyme activity inhibition assay (TMPRSS2, substrate Boc-Gln-Ala-Arg-AMC); settings: cross-validation; FIG. 2B
Method: (§1) Columns 15 to 20 were added with an equivalent volume of DMSO as a positive control group, and columns 18 to 20 were added with an equivalent volume of buffer as a negative control group. […] The 384-well plate was placed in a microplate reader for detection, and the slope of fluorescence intensity increase in the first 2 minutes of the enzymatic reaction was taken as the activity of the protein for subsequent calculation.

Cathepsin L = Cathepsin L (Homo sapiens, UniProt P07711); experiment: In vitro enzyme activity inhibition assay (Cathepsin L, substrate Cbz-Phe-Arg-AMC); format: biochemical; settings: cross-validation; FIG. 2A
Cathepsin L, sequence (P07711 114-333): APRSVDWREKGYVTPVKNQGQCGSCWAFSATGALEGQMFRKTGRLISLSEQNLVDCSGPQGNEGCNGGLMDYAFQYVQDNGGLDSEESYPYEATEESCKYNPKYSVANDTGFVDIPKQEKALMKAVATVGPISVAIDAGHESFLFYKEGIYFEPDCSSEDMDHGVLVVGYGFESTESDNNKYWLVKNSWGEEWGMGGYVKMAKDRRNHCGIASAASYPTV
Method: as §1

TMPRSS2, sequence (O15393 whole entry): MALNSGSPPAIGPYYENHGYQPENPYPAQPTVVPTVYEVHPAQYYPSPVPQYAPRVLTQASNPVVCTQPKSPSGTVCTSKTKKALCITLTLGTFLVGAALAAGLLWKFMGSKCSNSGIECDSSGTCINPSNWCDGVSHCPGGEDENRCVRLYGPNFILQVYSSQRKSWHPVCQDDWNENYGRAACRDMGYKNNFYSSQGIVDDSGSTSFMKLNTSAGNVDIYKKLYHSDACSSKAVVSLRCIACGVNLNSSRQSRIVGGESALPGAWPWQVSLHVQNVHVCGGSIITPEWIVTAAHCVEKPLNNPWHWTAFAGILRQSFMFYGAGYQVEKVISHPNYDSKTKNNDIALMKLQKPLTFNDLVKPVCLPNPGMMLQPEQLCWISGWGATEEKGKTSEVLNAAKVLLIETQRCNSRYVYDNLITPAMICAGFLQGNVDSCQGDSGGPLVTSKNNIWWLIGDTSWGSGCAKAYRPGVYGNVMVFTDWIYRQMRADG

SMILES | pEC50 (SARS-CoV-2 Delta; […], combination at a molar ratio of 1:1, FIG. 3) | inhibitory activity against TMPRSS2 (TMPRSS2) | inhibitory activity against Cathepsin L (Cathepsin L) | pEC50 (SARS-CoV-2 Delta)
CN1CCN(C(=O)N[C@@H](Cc2ccccc2)C(=O)N[C@H](/C=C/S(=O)(=O)c2ccccc2)CCc2ccccc2)CC1 [K777] | 6.18 | no inhibitory activity |  | 
N=C(N)Nc1ccc(C(=O)Oc2ccc3cc(C(=N)N)ccc3c2)cc1 [Nafamostat] |  |  | no inhibitory activity | 7.70

— patent EP4606376A1 (ShanghaiTech University, priority 2022, dated 2024)
